Measured values reported in article PMC9362525 (Diabetologia, 2022).
Like-named read-outs stand apart in the source and are kept apart here.

Tests used:
[1] = system: isolated human adipocytes; type: cell-based; settings: recombinant protein
patients with T2D and HF = type: in vivo, human
HHTg rats = type: in vivo, rat; settings: 10 mg/kg/day, 8 weeks
patients with T2D = type: in vivo, human
HUVECs = type: cell-based, human
[2] = system: patients with T2D and established CVD; type: in vivo, human
[3] = system: people with type 2 diabetes; type: in vivo, human; settings: 15 mg, 28 weeks
[4] = system: male C57BL/6 mice on 45% HFD; settings: mouse, in vivo
isolated human islets = type: cell-based; settings: metformin added after 0.5 day, n=7
[5] = type: in vivo, human; settings: 6-week treatment period

In the case of oncostatin-M, the “stimulation of basal lipolysis” value [1] is reported as “+47%”.

In the case of OC[C@H]1O[C@@H](c2ccc(Cl)c(Cc3ccc(O[C@H]4CCOC4)cc3)c2)[C@H](O)[C@@H](O)[C@@H]1O [empagliflozin], the “reduction of KIM-1 levels compared to placebo” value (patients with T2D and HF; 25 mg, week 48, EFFORT-2) is reported as 38%, the “LVEDD difference from placebo” value (patients with T2D and HF; week 24, EFFORT-1) is reported as -7.88 and the “LVEDD difference from placebo” value (patients with T2D and HF; week 48, EFFORT-1) is reported as -4.40. The “posterior wall diameter difference from placebo” value (patients with T2D and HF; week 48, EFFORT-2) was -2.29, the “non-fasting glucose and insulin” value (HHTg rats) was “markedly decreased” and the serum triglycerides levels (HHTg rats) was “reduced”. The “∆LVEF Rest, E vs I” value (patients with T2D; cardiac MRI) was -0±2%, the “∆LVEF Rest, treatment vs washout” value (patients with T2D; cardiac MRI) was 2 ±1% and the “∆LVPFR Rest, E vs I” value (patients with T2D; cardiac MRI) was -55 ± 19 mL/s. For the same compound, the “∆LVPFR Rest, treatment vs washout” value (patients with T2D; cardiac MRI) was -38 ± 19 mL/s, the “∆LVEF Stress, E vs I” value (patients with T2D; chronotropic stress) was 1±1% and the “∆LVEF Stress, treatment vs washout” value (patients with T2D; chronotropic stress) was -1±2%. The “∆LVPFR Stress, E vs I” value (patients with T2D; chronotropic stress) was -11 ± 47 mL/s, the “∆LVPFR Stress, treatment vs washout” value (patients with T2D; chronotropic stress) was -4 ± 45 mL/s and the 3-OH butyrate (patients with T2D; fasting, end of 5 weeks) was 0.27 ± 0.03 mM. The FFAs (patients with T2D; fasting, end of 5 weeks) was 0.60 ± 0.03 mM, the serum insulin (patients with T2D; fasting, end of 5 weeks) was 103 ± 14 pM and the “expression of inflammatory markers” value (HUVECs) was “did not significantly impact”. The “patients with improvement in KDIGO CKD risk” value (“patients with improvement” for short) ([2]; high baseline risk group) was 27.1%, the “patients with worsening KDIGO CKD risk” value ([2]; high risk baseline group) was 23.3% and the “patients with worsening KDIGO CKD risk” value ([2]; low risk baseline group, 10, 25 mg pooled) was 26.0%. For the same compound, the “patients with improvement” value ([2]; moderate baseline risk group) was 24.6%, the “patients with worsening KDIGO CKD risk” value ([2]; moderate risk baseline group) was 24.4% and the “patients with improvement” value ([2]; very high baseline risk group) was 26.2%.

For tirzepatide [TZP], the “insulin sensitivity (M-value), first and second phase ISR and beta-cell glucose sensitivity during EGC and HGC” value [3] was “more than SEMA and placebo”.

In the case of CN(C)C(=N)N=C(N)N [metformin], the “loss of excess body weight vs untreated mice” value [4] is reported as 30% and the “reduction of insulin secretion vs 1 day palmitate only” value (isolated human islets) is reported as 18%.

In the case of CCOc1ccc(Cc2cc([C@@H]3O[C@H](CO)[C@@H](O)[C@H](O)[C@H]3O)ccc2Cl)cc1 [DAPA, dapagliflozin], the “fractional renal extraction of glucose” value (T2DM and NGT subjects; NGT) is reported as 1.62± 1.4, the renal glucose uptake (T2DM and NGT subjects; NGT) is reported as 0.27 ± 0.08 mg/kg.min and the “fractional renal extraction of glucose” value (T2DM and NGT subjects; T2DM) is reported as 2.99±1.0. The renal glucose uptake (T2DM and NGT subjects; T2DM) was 0.347 ± 0.06 mg/kg.min and the mild hypoglycemia occurrence [5] was “once”.
